Reference: ChEMBL document CHEMBL4765295, “Synthesis, pharmacological profile and 2D-QSAR studies of curcumin-amino acid conjugates as potential drug candidates” (Eur J Med Chem, 2020)
“And” between values parts separate entries of the source, which are not always exact repeats. Equal entries are not always repeated.

Legend:
PC-3 = assay: Antiproliferative activity against human PC3 cells assessed as inhibition of cell growth after 72 hrs by MTT assay; assay type: functional, cell-based; details: PC-3, 72 h
Rattus norvegicus [1] = assay: Anti-inflammatory activity in Wistar rat assessed as inhibition of carrageenan-induced paw edema at 10 mg/kg, ip pretreated for 1 hr followed by carrageenan challenge and measured after 4 hr relative to control (reference value: 0.00 +/-0.4 %); assay type: functional; details: time 5 hrs
Mus musculus [2] = assay: Analgesic activity in albino mouse assessed protection against acetic acid-induced abdominal writhing at 10 mg/kg, ip pretreated for 1 hr followed by acetic acid challenge and measured starting 5 mins post acetic acid challenge for 10 mins relative to control (reference value: 0 %); assay type: functional; details: time 75 min, 1.25 h
MCF7 = assay: Antiproliferative activity against human MCF7 cells assessed as inhibition of cell growth after 72 hrs by MTT assay; assay type: functional, cell-based; details: MCF7, 72 h
Mus musculus [3] = assay: Analgesic activity in albino mouse assessed as protection at 10 mg/kg, ip measured after 120 mins by hot plate test relative to indomethacin; assay type: functional; details: 2 h
Mus musculus [4] = assay: Analgesic activity in albino mouse assessed as forepaw licking/jumping latency time at 10 mg/kg, ip measured after 120 mins by hot plate test (reference value: 2.62 +/- 0.06 sec); assay type: functional; details: 2 h
Mus musculus [5] = assay: Analgesic activity in albino mouse assessed as protection at 10 mg/kg, ip measured after 120 mins by hot plate test (reference value: 0 %); assay type: functional; details: 2 h
Salmonella typhimurium = assay: Antibacterial activity against Salmonella typhimurium ATCC 19430 incubated for 18 hrs by agar dilution assay; assay type: functional, Salmonella enterica subsp. enterica serovar Typhimurium; details: Salmonella enterica
Peritoneal macrophage [6] = assay: Antiinflammatory activity in […] mouse Peritoneal macrophages assessed as inhibition of LPS-induced NO production at 10 uM preincubated for 1 hr followed by LPS stimulation measured after 24 hrs by Griess method relative to control (reference value: 0.0 %); assay type: functional; parameters: scale not given: the % may be the effect or the level left; details: time 25 hrs
Rattus norvegicus [7] = assay: Antiinflammatory activity in Wistar rat model of carrageenan-induced paw edema assessed as reduction in thickness of paw edema at 10 mg/kg, ip pretreated for 1 hr followed by carrageenan challenge and measured after 24 hrs (reference value: 0.83 +/-0.08 mm); assay type: functional; details: time 25 hrs
Pseudomonas aeruginosa = assay: Antibacterial activity against Pseudomonas aeruginosa ATCC 27853 incubated for 18 hrs by agar dilution assay; assay type: functional
[8] = Ulcerogenic activity in fasted albino mouse assessed as ulcer index in gastric mucosa at 10 mg/kg, po for 3 days (reference value: 0); assay type: toxicity, organism-based; details: in vivo, 72 h, time 3 day
Mus musculus [9] = assay: Analgesic activity in albino mouse assessed as protection at 10 mg/kg, ip measured after 30 mins by hot plate test (reference value: 0 %); assay type: functional; details: 0.5 h
Rattus norvegicus [10] = assay: Antiinflammatory activity in Wistar rat model of carrageenan-induced paw edema assessed as reduction in thickness of paw edema at 10 mg/kg, ip pretreated for 1 hr followed by carrageenan challenge and measured after 4 hrs (reference value: 1.40 +/-0.10 mm); assay type: functional; details: time 5 hrs
Peritoneal macrophage [11] = assay: Antiinflammatory activity in […] mouse Peritoneal macrophages assessed as reduction in LPS-induced NO production by measuring reduction in stimulation index at 10 uM preincubated for 1 hr followed by LPS stimulation measured after 24 hrs by Griess method (reference value: 27.31 +/- 2.56 uM); assay type: functional; details: time 25 hrs
[12] = Ulcerogenic activity in fasted albino mouse assessed as incidence of gastric ulceration at 10 mg/kg, po for 3 days (reference value: 0 %); assay type: toxicity, organism-based; details: in vivo, 72 h, time 3 day
Candida albicans = assay: Antifungal activity against Candida albicans incubated for 18 to 24 hrs by CLSI method; assay type: functional; details: time 18-24 hrs
Streptococcus pyogenes = assay: Antibacterial activity against Streptococcus pyogenes ATCC 19615 incubated for 18 hrs by agar dilution method; assay type: functional
Rattus norvegicus [13] = assay: Anti-inflammatory activity in Wistar rat assessed as inhibition of carrageenan-induced paw edema at 10 mg/kg, ip pretreated for 1 hr followed by carrageenan challenge and measured after 2 hr relative to control (reference value: 0.00 +/-0.03 %); assay type: functional; details: time 3 hrs
Mus musculus [14] = assay: Analgesic activity in albino mouse assessed as forepaw licking/jumping latency time at 10 mg/kg, ip measured after 90 mins by hot plate test (reference value: 2.72 +/- 0.01 sec); assay type: functional; details: 1.5 h
Rattus norvegicus [15] = assay: Antiinflammatory activity in Wistar rat model of carrageenan-induced paw edema assessed as reduction in thickness of paw edema at 10 mg/kg, ip pretreated for 1 hr followed by carrageenan challenge and measured after 1 hr (reference value: 2.41 +/-0.05 mm); assay type: functional; details: time 1 hr after carrageenan
Staphylococcus aureus = assay: Antibacterial activity against Staphylococcus aureus ATCC 25923 incubated for 18 hrs by agar dilution method; assay type: functional
Rattus norvegicus [16] = assay: Anti-inflammatory activity in Wistar rat assessed as inhibition of carrageenan-induced paw edema at 10 mg/kg, ip pretreated for 1 hr followed by carrageenan challenge and measured after 1 hr relative to control (reference value: 0.00 +/-0.02 %); assay type: functional; details: time 2 hrs
Rattus norvegicus [17] = assay: Anti-inflammatory activity in Wistar rat assessed as inhibition of carrageenan-induced paw edema at 10 mg/kg, ip pretreated for 1 hr followed by carrageenan challenge and measured after 3 hr relative to control (reference value: 0.00 +/-0.1 %); assay type: functional; details: time 4 hrs
[18] = Toxicity in albino mouse assessed as induction of toxic symptoms at 50 to 100 mg/kg, ip measured after 24 hrs; assay type: organism-based; details: in vivo, dose 50-100 mg/kg
Mus musculus [19] = assay: Analgesic activity in albino mouse assessed as protection at 10 mg/kg, ip measured after 60 mins by hot plate test (reference value: 0 %); assay type: functional; details: 1 h
Mus musculus [20] = assay: Analgesic activity in albino mouse assessed as forepaw licking/jumping latency time at 10 mg/kg, ip measured after 60 mins by hot plate test (reference value: 3.42 +/- 0.03 sec); assay type: functional; details: 1 h
Rattus norvegicus [21] = assay: Anti-inflammatory activity in Wistar rat assessed as inhibition of carrageenan-induced paw edema at 10 mg/kg, ip pretreated for 1 hr followed by carrageenan challenge and measured after 4 hr relative to indomethacin; assay type: functional; details: time 5 hrs
Rattus norvegicus [22] = assay: Antiinflammatory activity in Wistar rat model of carrageenan-induced paw edema assessed as reduction in thickness of paw edema at 10 mg/kg, ip pretreated for 1 hr followed by carrageenan challenge and measured after 2 hrs (reference value: 2.06 +/-0.09 mm); assay type: functional; details: time 3 hrs
A549 = assay: Antiproliferative activity against human A549 cells assessed as inhibition of cell growth after 72 hrs by MTT assay; assay type: functional, cell-based; details: A549, 72 h
Mus musculus [23] = assay: Analgesic activity in albino mouse assessed protection against acetic acid-induced abdominal writhing at 10 mg/kg, ip pretreated for 1 hr followed by acetic acid challenge and measured starting 5 mins post acetic acid challenge for 10 mins relative to indomethacin; assay type: functional; details: time 75 min, 1.25 h
[24] = Ulcerogenic activity in fasted albino mouse assessed as average severity of ulcers in gastric mucosa at 10 mg/kg, po for 3 days (reference value: 0); assay type: toxicity, organism-based; details: in vivo, 72 h, time 3 day
Mus musculus [25] = assay: Analgesic activity in albino mouse assessed reduction in acetic acid-induced abdominal writhing by measuring writing reflex at 10 mg/kg, ip pretreated for 1 hr followed by acetic acid challenge and measured starting 5 mins post acetic acid challenge for 10 mins (reference value: 42.4 +/- 1.02); assay type: functional; details: time 75 min, 1.25 h
Mus musculus [26] = assay: Analgesic activity in albino mouse assessed as protection at 10 mg/kg, ip measured after 90 mins by hot plate test (reference value: 0 %); assay type: functional; details: 1.5 h
Mus musculus [27] = assay: Analgesic activity in albino mouse assessed as forepaw licking/jumping latency time at 10 mg/kg, ip measured after 30 mins by hot plate test (reference value: 5.02 +/- 0.09 sec); assay type: functional; details: 0.5 h
Splenocyte [28] = assay: Immunomodulatory activity in Swiss albino mouse splenocytes assessed as cell viability at 10 uM by measuring stimulation index incubated for 72 hrs in presence of mitogenic stimulus phytohaemagglutinin by MTT assay (reference value: 1.00 +/- 0.24); assay type: functional
Rattus norvegicus [29] = assay: Antiinflammatory activity in Wistar rat model of carrageenan-induced paw edema assessed as reduction in thickness of paw edema at 10 mg/kg, ip pretreated for 1 hr followed by carrageenan challenge and measured after 3 hrs (reference value: 1.79 +/-0.07 mm); assay type: functional; details: time 4 hrs
[30] = Ulcerogenic activity in fasted albino mouse assessed as average number of ulcers in gastric mucosa at 10 mg/kg, po for 3 days (reference value: 0); assay type: toxicity, organism-based; details: in vivo, 72 h, time 3 day
Rattus norvegicus [31] = assay: Anti-inflammatory activity in Wistar rat assessed as inhibition of carrageenan-induced paw edema at 10 mg/kg, ip pretreated for 1 hr followed by carrageenan challenge and measured after 24 hr relative to control (reference value: 0.00 +/-0.3 %); assay type: functional; details: time 25 hrs
Splenocyte [32] = assay: Immunomodulatory activity in Swiss albino mouse splenocytes assessed as cell viability at 10 uM by measuring inhibition of stimulation index incubated for 72 hrs in presence of mitogenic stimulus phytohaemagglutinin by MTT assay relative to indomethacin; assay type: functional; details: read-out: Activity

For `COc1cc(/C=C/C(=O)/C=C(O)/C=C/c2ccc(OC(=O)CCN)c(OC)c2)ccc1OC(=O)CCN.Cl.Cl`, the IC50 (PC-3) was 30.2 µM, the inhibition in vivo at 10 mg/kg (Rattus norvegicus [1]) was 89% and the Activity (Mus musculus [2]) was 39.6%. It also gave an IC50 (MCF7) of 9.36 µM, an Activity (Mus musculus [3]) of 85.5% and a Time (Mus musculus [4]) of 3.56 s. The Activity (Mus musculus [5]) was 35.9%, the MIC (Salmonella typhimurium) was 1 µg/mL and 1.71 µM and the Activity (Peritoneal macrophage [6]) was 41.68%. For the same compound, the Activity (Rattus norvegicus [7]) was 0.23 mm, the MIC (Pseudomonas aeruginosa) was 1 µg/mL and 1.71 µM and the UI [8] was 0. For the same compound, the Activity (Mus musculus [9]) was 8.8%, the Activity (Rattus norvegicus [10]) was 0.16 mm and the Activity (Peritoneal macrophage [11]) was 15.93 µM. For the same compound, the Activity [12] was 0%, the MIC (Candida albicans) was 0.5 µg/mL and 0.857 µM and the MIC (Streptococcus pyogenes) was 1 µg/mL and 1.71 µM. It also gave an inhibition in vivo at 10 mg/kg (Rattus norvegicus [13]) of 71%, a Time (Mus musculus [14]) of 4.16 s and an Activity (Rattus norvegicus [15]) of 0.74 mm. For the same compound, the MIC (Staphylococcus aureus) was 1 µg/mL and 1.71 µM, the inhibition in vivo at 10 mg/kg (Rattus norvegicus [16]) was 69% and the inhibition in vivo at 10 mg/kg (Rattus norvegicus [17]) was 77%. For the same compound, the Activity [18] was “Non-Toxic”, the Activity (Mus musculus [19]) was 52% and the Time (Mus musculus [20]) was 5.2 s. For the same compound, the inhibition in vivo at 10 mg/kg (Rattus norvegicus [21]) was 102%, the Activity (Rattus norvegicus [22]) was 0.6 mm and the IC50 (A549) was 32.4 µM. It also gave an Activity (Mus musculus [23]) of 64.3%, an Activity [24] of 0 and an Activity (Mus musculus [25]) of 25.6. It also gave an Activity (Mus musculus [26]) of 52.9%, a Time (Mus musculus [27]) of 5.46 s and an Activity_index (Splenocyte [28]) of 1.39. It also gave an Activity (Rattus norvegicus [29]) of 0.42 mm, an Activity [30] of 0 and an inhibition in vivo at 10 mg/kg (Rattus norvegicus [31]) of 72%. The viability at 10 µM (Splenocyte [32]) was 87.4%.
